# Earlier results, collected in patent publication US20060122127A1, “Methods for reducing the side effects associated with mirtzapine treatment” (Cypress Bioscience, Inc., priority 2004, published 2006).
# How the values were obtained:
# [1] = system: tonic extension seizures induced by maximal electroshock; conditions: animals
# [2] = obese patients
# [3] = 100-200 mg/d, patients with neuropathic pain
# [4] = system: clonic seizures induced by subcutaneous pentylenetetrazol; conditions: animals
structure (smiles),measurement,setting,value
CN(C)CCC=C1c2ccccc2CCc2ccccc21 [amitriptyline],patients with weight gain of greater than or equal to 7% of body weight,controlled studies (placebo 0%),5.9%
same,patients reporting appetite increase,controlled studies (placebo 2%),6%
"NS(=O)(=O)Cc1noc2ccccc12 [zonisamide, 1,2-benzisoxazole-3-methanesulfonamide]",anticonvulsant activity against tonic extension seizures,[1],effective
same,loss of body weight,[2]; 32 week extension phase (placebo 1.8% loss),9.4%
same,reduction of body weight,[2]; following 16 weeks of therapy (placebo 1% loss),6%
same,patients whose subjective ratings of pain improved by at least 50%,[3],59%
same,anticonvulsant activity against clonic seizures,[4],ineffective
